Laboratory results from US9725465B2, “Biaryl acetamide compounds and methods of use thereof” (Ambit Biosciences Corporation, priority 2013, dated 2017).
pIC50, pKd: −log10 of the molar value.

Key:
KIT kinase = KIT kinase (Homo sapiens (Human), UniProt P10721); assay: Competition binding assay (Kd), KIT; conditions: competition binding assay
How it was run: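 Kd derived from eleven-point threefold serial dilutions of compound competing with bead-bound ligand for kinase; bound kinase eluted and measured by quantitative PCR. Kinase supplied either as a T7 phage fusion or expressed in HEK-293 cells with a DNA tag; DMSO served as control.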

FLT3-ITD = FLT3-ITD (Homo sapiens (Human), UniProt P36888, INS600HVDFREYEYD); assay: pFLT3 MSD assay, Ba/F3 FLT3-ITD; type: cell-based; conditions: Ba/F3 FLT3-ITD cells, 2 hours, read-out: BaF3-FLT3-ITD pFlt3 IC50
FLT3-ITD, sequence (P36888 other isoform, or with tags, fused parts or gaps limits assumed, stated change not applied): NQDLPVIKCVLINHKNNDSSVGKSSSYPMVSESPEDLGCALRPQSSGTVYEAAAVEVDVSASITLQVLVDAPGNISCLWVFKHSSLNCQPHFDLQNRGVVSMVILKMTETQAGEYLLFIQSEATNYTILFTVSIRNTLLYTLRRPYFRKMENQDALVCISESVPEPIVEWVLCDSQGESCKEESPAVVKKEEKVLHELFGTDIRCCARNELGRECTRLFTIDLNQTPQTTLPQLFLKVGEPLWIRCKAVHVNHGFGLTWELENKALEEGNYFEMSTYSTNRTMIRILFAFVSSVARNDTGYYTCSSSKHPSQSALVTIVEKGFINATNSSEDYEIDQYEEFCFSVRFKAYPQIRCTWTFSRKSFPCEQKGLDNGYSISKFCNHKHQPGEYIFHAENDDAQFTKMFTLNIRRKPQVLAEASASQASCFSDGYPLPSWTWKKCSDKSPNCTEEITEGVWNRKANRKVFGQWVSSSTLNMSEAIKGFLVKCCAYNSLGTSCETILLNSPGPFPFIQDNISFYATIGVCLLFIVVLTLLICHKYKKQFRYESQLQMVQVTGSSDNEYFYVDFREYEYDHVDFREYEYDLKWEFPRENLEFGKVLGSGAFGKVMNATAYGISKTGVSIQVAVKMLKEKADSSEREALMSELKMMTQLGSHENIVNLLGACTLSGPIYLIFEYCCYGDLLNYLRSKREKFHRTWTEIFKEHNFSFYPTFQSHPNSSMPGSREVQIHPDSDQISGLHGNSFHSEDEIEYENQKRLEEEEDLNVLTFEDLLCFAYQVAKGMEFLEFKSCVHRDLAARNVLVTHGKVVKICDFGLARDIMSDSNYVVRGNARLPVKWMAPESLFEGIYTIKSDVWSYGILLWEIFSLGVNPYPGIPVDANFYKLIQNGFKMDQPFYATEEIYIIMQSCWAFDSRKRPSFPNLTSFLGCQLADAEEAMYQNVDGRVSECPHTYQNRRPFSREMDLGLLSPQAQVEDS

FLT3 kinase = FLT3 kinase (Homo sapiens (Human), UniProt P36888); assay: Competition binding assay (Kd), FLT3; conditions: competition binding assay
FLT3 kinase, sequence (P36888 27-993): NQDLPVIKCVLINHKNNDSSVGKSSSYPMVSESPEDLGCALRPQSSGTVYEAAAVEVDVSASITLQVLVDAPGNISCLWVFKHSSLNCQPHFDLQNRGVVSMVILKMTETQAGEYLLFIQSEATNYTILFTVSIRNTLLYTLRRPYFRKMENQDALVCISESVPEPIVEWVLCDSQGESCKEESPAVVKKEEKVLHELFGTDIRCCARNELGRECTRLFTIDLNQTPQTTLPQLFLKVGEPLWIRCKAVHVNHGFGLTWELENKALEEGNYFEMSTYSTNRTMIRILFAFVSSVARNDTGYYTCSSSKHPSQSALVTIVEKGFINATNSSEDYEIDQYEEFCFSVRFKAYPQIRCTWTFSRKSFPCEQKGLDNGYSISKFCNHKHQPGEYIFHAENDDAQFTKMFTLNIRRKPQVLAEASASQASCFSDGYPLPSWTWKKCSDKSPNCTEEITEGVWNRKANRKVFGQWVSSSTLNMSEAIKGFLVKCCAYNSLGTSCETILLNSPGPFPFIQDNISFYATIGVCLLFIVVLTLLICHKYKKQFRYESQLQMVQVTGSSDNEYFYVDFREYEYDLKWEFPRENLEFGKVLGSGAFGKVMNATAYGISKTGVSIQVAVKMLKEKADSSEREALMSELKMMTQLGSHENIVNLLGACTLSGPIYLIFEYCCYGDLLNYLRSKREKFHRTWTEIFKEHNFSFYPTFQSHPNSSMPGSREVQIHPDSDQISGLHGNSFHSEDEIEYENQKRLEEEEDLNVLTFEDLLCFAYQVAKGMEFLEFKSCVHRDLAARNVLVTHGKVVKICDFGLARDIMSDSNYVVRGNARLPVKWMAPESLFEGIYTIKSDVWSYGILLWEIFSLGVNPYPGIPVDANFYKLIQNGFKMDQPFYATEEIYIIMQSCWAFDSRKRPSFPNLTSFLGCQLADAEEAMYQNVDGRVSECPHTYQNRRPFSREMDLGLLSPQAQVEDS

KIT kinase, sequence (P10721 26-976): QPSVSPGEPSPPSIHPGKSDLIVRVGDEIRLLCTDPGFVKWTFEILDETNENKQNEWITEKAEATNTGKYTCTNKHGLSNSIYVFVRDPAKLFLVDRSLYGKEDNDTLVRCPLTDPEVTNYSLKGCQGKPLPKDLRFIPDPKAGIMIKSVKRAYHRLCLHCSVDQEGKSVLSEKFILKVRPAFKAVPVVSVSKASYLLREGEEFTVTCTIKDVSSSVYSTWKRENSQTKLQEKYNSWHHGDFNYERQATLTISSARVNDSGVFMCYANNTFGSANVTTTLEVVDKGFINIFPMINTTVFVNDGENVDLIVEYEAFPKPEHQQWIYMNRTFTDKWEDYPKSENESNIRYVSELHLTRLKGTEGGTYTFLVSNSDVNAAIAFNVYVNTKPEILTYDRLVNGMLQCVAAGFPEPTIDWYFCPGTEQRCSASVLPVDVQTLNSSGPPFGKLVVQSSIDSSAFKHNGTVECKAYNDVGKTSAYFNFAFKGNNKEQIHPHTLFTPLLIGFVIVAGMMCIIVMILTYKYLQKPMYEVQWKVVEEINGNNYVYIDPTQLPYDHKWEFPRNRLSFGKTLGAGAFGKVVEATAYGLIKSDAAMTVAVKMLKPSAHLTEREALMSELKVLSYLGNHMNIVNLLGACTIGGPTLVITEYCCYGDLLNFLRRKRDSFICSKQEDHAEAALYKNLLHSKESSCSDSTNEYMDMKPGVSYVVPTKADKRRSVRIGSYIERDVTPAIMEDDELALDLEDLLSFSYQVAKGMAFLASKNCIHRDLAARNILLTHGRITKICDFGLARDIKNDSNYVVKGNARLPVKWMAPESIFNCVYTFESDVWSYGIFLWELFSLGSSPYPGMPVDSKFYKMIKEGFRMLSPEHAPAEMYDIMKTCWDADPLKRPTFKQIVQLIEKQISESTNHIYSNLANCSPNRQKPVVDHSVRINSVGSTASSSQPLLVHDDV

Compound	pKd (KIT kinase)	pIC50 (FLT3-ITD)	pKd (FLT3 kinase)
COCCOc1cc2nc(-c3ccc(CC(=O)Nc4cc(C5(C(F)(F)F)CC5)on4)c(F)c3)cnc2cc1OC [compound 77]	> 8.30	> 8.00	> 8.30
CC(C)(C)c1cc(NC(=O)Cc2ccc(-c3cnc4[nH]c(C(=O)NCCO)cc4c3)cc2)no1 [Example 64, 5-(4-(2-((5-(tert-butyl)isoxazol-3-yl)amino)-2-oxoethyl)phenyl)-N-(2-hydroxyethyl)-1H-pyrrolo[2,3-b]pyridine-2-carboxamide]	> 8.30	> 8.00	> 8.30
COc1cc2ncc(-c3ccc(CC(=O)Nc4cc(C(C)(C)C)on4)cc3)cc2c(OC)c1OC [Example 116, N-(5-tert-butylisoxazol-3-yl)-2-[4-(5,6,7-trimethoxy-3-quinolyl)phenyl]acetamide]	> 8.30	> 8.00	> 8.30
CC(=O)OCCOc1cc2ncc(-c3ccc(CC(=O)Nc4cc(C5(C(F)(F)F)CC5)on4)c(F)c3)nc2cc1OCCOC(C)=O [Example 74, ((2-(3-fluoro-4-(2-oxo-2-((5-(1-(trifluoromethyl)cyclopropyl)isoxazol-3-yl)amino)ethyl)phenyl)quinoxaline-6,7-diyl)bis(oxy))bis(ethane-2,1-diyl) diacetate]	7.70 to 8.30	> 8.00	> 8.30
COc1ccc2cc(-c3ccc(CC(=O)Nc4cc(C5(C(F)(F)F)CC5)on4)cc3)cnc2c1 [Example 2, 2-(4-(7-methoxyquinolin-3-yl)phenyl)-N-(5-(1-(trifluoromethyl)cyclopropyl)isoxazol-3-yl)acetamide]	> 8.30	> 8.00	> 8.30
COc1cc2nc(-c3ccc(CC(=O)Nc4cc(C5(C(F)(F)F)CC5)on4)c(F)c3)cnc2cc1OCCN1CCCC1 [Example 134, 2-[2-fluoro-4-[7-methoxy-6-(2-pyrrolidin-1-ylethoxy)quinoxalin-2-yl]phenyl]-N-[5-[1-(trifluoromethyl)cyclo-propyl]isoxazol-3-yl]acetamide]	> 8.30	> 8.00	> 8.30
COc1cc2ncc(-c3ccc(CC(=O)Nc4cc(C5(C(F)(F)F)CC5)on4)c(F)c3)nc2cc1OCCO [Example 80, 2-(2-fluoro-4-(7-(2-hydroxyethoxy)-6-methoxyquinoxalin-2-yl)phenyl)-N-(5-(1-(trifluoromethyl)cyclopropyl)isoxazol-3-yl)acetamide]	> 8.30	> 8.00	> 8.30
CN(C)CCNC(=O)c1cc2cc(-c3ccc(CC(=O)Nc4cc(C(C)(C)C)on4)cc3)cnc2[nH]1 [Example 66, 5-(4-(2-((5-(tert-butyl)isoxazol-3-yl)amino)-2-oxoethyl)phenyl)-N-(2-(dimethylamino)ethyl)-1H-pyrrolo[2,3-b]pyridine-2-carboxamide]	> 8.30	> 8.00	> 8.30
COc1cc2ncc(-c3ccc(CC(=O)Nc4cc(C5(C(F)(F)F)CC5)on4)c(F)c3)nc2cc1OCc1ccccc1 [Example 156, 2-[4-(7-benzyloxy-6-methoxy-quinoxalin-2-yl)-2-fluoro-phenyl]-N-[5-[1-(trifluoromethyl)cyclo-propyl]isoxazol-3-yl]acetamide]	< 7.30	> 8.00	< 7.30

More lines, now with the values ahead:

pKd (KIT kinase)	pIC50 (FLT3-ITD)	pKd (FLT3 kinase)	Compound
7.70 to 8.30	> 8.00	> 8.30	COc1cc2ncc(-c3ccc(CC(=O)Nc4cc(C(C)(C)C(F)(F)F)on4)c(F)c3)c(N=[N+]=[N-])c2cc1OC [Example 141, 2-[4-(4-azido-6,7-dimethoxy-3-quinolyl)-2-fluoro-phenyl]-N-[5-(2,2,2-trifluoro-1,1-dimethyl-ethyl)isoxazol-3-yl]acetamide]
> 8.30	> 8.00	> 8.30	COc1cc2ncc(-c3ccc(CC(=O)Nc4cc(C(C)(C)C(F)(F)F)on4)c(F)c3)c(Cl)c2cc1OC [Example 138, 2-[4-(4-chloro-6,7-dimethoxy-3-quinolyl)-2-fluoro-phenyl]-N-[5-(2,2,2-trifluoro-1,1-dimethyl-ethyl)isoxazol-3-yl]acetamide]
> 8.30	> 8.00	> 8.30	COc1cc2nc(-c3ccc(CC(=O)Nc4cc(C(C)(C)C(F)(F)F)on4)c(F)c3)cnc2cc1OC1COC1 [Example 147, 2-[2-fluoro-4-[7-methoxy-6-(oxetan-3-yloxy)quinoxalin-2-yl]phenyl]-N-[5-(2,2,2-trifluoro-1,1-dimethyl-ethyl)isoxazol-3-yl]acetamide]
> 8.30	> 8.00	> 8.30	COc1cc2ncc(-c3ccc(CC(=O)Nc4cc(C5(C(F)(F)F)CC5)on4)c(F)c3)nc2cc1OC [Example 4, 2-(4-(6,7-dimethoxyquinoxalin-2-yl)-2-fluorophenyl)-N-(5-(1-(trifluoromethyl)cyclopropyl)isoxazol-3-yl)acetamide]
> 8.30	> 8.00	> 8.30	COc1cc2nc(C)c(-c3ccc(CC(=O)Nc4cc(C5(C(F)(F)F)CC5)on4)c(F)c3)nc2cc1OC [Example 169, 2-[4-(6,7-dimethoxy-3-methyl-quinoxalin-2-yl)-2-fluoro-phenyl]-N-[5-[1-(trifluoromethyl)cyclo-propyl]isoxazol-3-yl]acetamide]
7.70 to 8.30	> 8.00	> 8.30	COc1cc2nc(-c3ccc(CC(=O)Nc4cc(C(C)(C)C(F)(F)F)on4)c(F)c3)cnc2cc1OC1CNC1 [Example 148, 2-[4-[6-(azetidin-3-yloxy)-7-methoxy-quinoxalin-2-yl]-2-fluoro-phenyl]-N-[5-(2,2,2-trifluoro-1,1-dimethyl-ethyl)isoxazol-3-yl]acetamide]
> 8.30	> 8.00	> 8.30	COc1n[nH]c2ncc(-c3ccc(CC(=O)Nc4cc(C(C)(C)C(F)(F)F)on4)c(F)c3)cc12 [Example 63, 2-(2-fluoro-4-(3-methoxy-1H-pyrazolo[3,4-b]pyridin-5-yl)phenyl)-N-(5-(1,1,1-trifluoro-2-methylpropan-2-yl)isoxazol-3-yl)acetamide]
> 8.30	> 8.00	> 8.30	COc1cc2nc(CO)c(-c3ccc(CC(=O)Nc4cc(C5(C(F)(F)F)CC5)on4)c(F)c3)nc2cc1OC [Example 137, 2-[2-fluoro-4-[3-(hydroxymethyl)-6,7-dimethoxy-quinoxalin-2-yl]phenyl]-N-[5-[1-(trifluoro-methyl)cyclopropyl]isoxazol-3-yl]acetamide]
